In patent publication US6470226B1 (priority 1997, dated 2002):

Each compound was assayed on voltage dependent calcium channels.
Assay type: cell-based, chick

Compound | effect on voltage dependent calcium channels (maximum current induced by depolarizing voltage steps) | reversibility of effect (washout)
COC(=O)C1=C(C)NC(C)=C([N+](=O)[O-])C1c1ccccc1C(F)(F)F (stereo not drawn) [Bay-k 8644] | stimulates L-type calcium channels | reversibly
w-conotoxin MVIIA | high affinity for N-type calcium channels | irreversible
N=C(N)NC(=O)c1nc(Cl)c(N)nc1N [amiloride] | no effect on calcium ion channels | 
O=C1NC(=O)C(c2ccccc2)(c2ccccc2)N1 [phenytoin] | no effect on calcium ion channels | 
